This note sets out measurements from ChEMBL document CHEMBL5113415, “Synthesis of 10,10'-bis(trifluoromethyl) marinopyrrole A derivatives and evaluation of their antiviral activities in vitro” (Eur J Med Chem, 2022).

The structures appear in SMILES notation.

The term CC50 denotes the concentration that lowers cell viability or growth by half. Low readings indicate harm at low concentration, high ones better tolerance by the cells. The term IC50 denotes the midpoint of a concentration-inhibition curve. A higher IC50 goes with a need for much substance.

Test system in the first series: not listed separately
Nature of the series: Cytotoxicity against […] infected with ZIKV-SMGC-1 incubated for 7 days by CellTiter 96 luminescent cell viability assay. To be noted: time 7 day. The class given is toxicity, cell-based.
As to `O=C(c1ccc(C(F)(F)F)cc1O)c1[nH]c(Cl)c(Cl)c1-n1c(C(=O)c2ccc(C(F)(F)F)cc2O)cc(Cl)c1SCc1ccccn1`, the CC50 at 168 h was 320 nM.
Regarding `C#C[C@@]1(O)[C@H](O)[C@@H](CO)O[C@H]1n1ccc2c(N)ncnc21`, the CC50 at 168 h was above 20000 nM.

The next series concerns Enterovirus A71. Nature of the series: Antiviral activity against EV71 infected in human RD cells incubated for 3 days by CellTiter 96 luminescent cell viability assay. To be noted: Enterovirus A, 71, RD, 72 h. The class given is functional, organism-based.
Consider `O=C(c1ccc(C(F)(F)F)cc1O)c1[nH]c(Cl)c(Cl)c1-n1c(C(=O)c2ccc(C(F)(F)F)cc2O)cc(Cl)c1SCc1ccccn1`, for which the IC50 turned out to be 170 nM.
Consider `C#C[C@@]1(O)[C@H](O)[C@@H](CO)O[C@H]1n1ccc2c(N)ncnc21`, for which the IC50 was found to be 500 nM.

The next series has as its system Zika virus. Nature of the series: Antiviral activity against ZIKV-SMGC-1 infected in […] incubated for 7 days by CellTiter 96 luminescent cell viability assay. The class given is functional, organism-based. To be noted: SMGC-1, BHK, 168 h.
`C#C[C@@]1(O)[C@H](O)[C@@H](CO)O[C@H]1n1ccc2c(N)ncnc21` had an IC50 of 1620 nM.

Test system in the next series: not listed separately
The series is described as follows: Cytotoxicity against human RD cells infected with CA6 incubated for 3 days by CellTiter 96 luminescent cell viability assay. The class given is toxicity, cell-based. The settings on record: time 3 day.
`O=C(c1ccc(C(F)(F)F)cc1O)c1[nH]c(Cl)c(Cl)c1-n1c(C(=O)c2ccc(C(F)(F)F)cc2O)cc(Cl)c1SCc1ccccn1` came in with a CC50 at 72 h of 340 nM.
Compound `C#C[C@@]1(O)[C@H](O)[C@@H](CO)O[C@H]1n1ccc2c(N)ncnc21` returned a CC50 at 72 h above 20000 nM.

Test system in another series: not listed separately
Nature of the series: Selectivity index, ratio of CC50 for […] to IC50 for YFV-17D infected in […]. To be noted: read-out: Ratio CC50/IC50. The format is toxicity, cell-based.
As for `C#C[C@@]1(O)[C@H](O)[C@@H](CO)O[C@H]1n1ccc2c(N)ncnc21`, the selectivity ratio was above 10.5.

Test system in another series: not listed separately
Nature of the series: Cytotoxicity against human RD cells infected with EV71 incubated for 3 days by CellTiter 96 luminescent cell viability assay. The settings on record: time 3 day. The class given is toxicity, cell-based.
Turning to `O=C(c1ccc(C(F)(F)F)cc1O)c1[nH]c(Cl)c(Cl)c1-n1c(C(=O)c2ccc(C(F)(F)F)cc2O)cc(Cl)c1SCc1ccccn1`, the CC50 at 72 h is 240 nM.
For `C#C[C@@]1(O)[C@H](O)[C@@H](CO)O[C@H]1n1ccc2c(N)ncnc21`, the CC50 at 72 h was above 20000 nM.

Test system in a further series: not listed separately
Nature of the series: Cytotoxicity against […] infected with JEV-SA14 incubated for 7 days by CellTiter 96 luminescent cell viability assay. The format is toxicity, cell-based. The settings on record: time 7 day.
Consider `O=C(c1ccc(C(F)(F)F)cc1O)c1[nH]c(Cl)c(Cl)c1-n1c(C(=O)c2ccc(C(F)(F)F)cc2O)cc(Cl)c1SCc1ccccn1`, for which the 50% cytotoxic concentration (CC50) at 168 h stood at 260 nM.
With `C#C[C@@]1(O)[C@H](O)[C@@H](CO)O[C@H]1n1ccc2c(N)ncnc21`, the CC50 at 168 h was above 20000 nM.

Test system in another series: not listed separately
Nature of the series: Cytotoxicity against […] infected with DENV-NGC-1 incubated for 7 days by CellTiter 96 luminescent cell viability assay. The class given is toxicity, cell-based. The settings on record: time 7 day.
As for `C#C[C@@]1(O)[C@H](O)[C@@H](CO)O[C@H]1n1ccc2c(N)ncnc21`, the CC50 at 168 h was above 20000 nM.

Test system in the next series: not listed separately
Nature of the series: Selectivity index, ratio of CC50 for human RD cells to IC50 for CA16 infected in human RD cells. The class given is toxicity, cell-based. The settings on record: read-out: Ratio CC50/IC50.
As to `O=C(c1ccc(C(F)(F)F)cc1O)c1[nH]c(Cl)c(Cl)c1-n1c(C(=O)c2ccc(C(F)(F)F)cc2O)cc(Cl)c1SCc1ccccn1`, the selectivity ratio amounted to 11.5.
`C#C[C@@]1(O)[C@H](O)[C@@H](CO)O[C@H]1n1ccc2c(N)ncnc21`: the selectivity ratio was above 28.2.

Test system in another series: not listed separately
Nature of the series: Cytotoxicity against […] infected with YFV-17D incubated for 7 days by CellTiter 96 luminescent cell viability assay. The class given is toxicity, cell-based. To be noted: time 7 day.
Turning to `C#C[C@@]1(O)[C@H](O)[C@@H](CO)O[C@H]1n1ccc2c(N)ncnc21`, the CC50 at 168 h is above 20000 nM.

Test system in another series: not listed separately
The series is described as follows: Selectivity index, ratio of CC50 for […] to IC50 for ZIKV-SMGC-1 infected in […]. The format is toxicity, cell-based. The settings on record: read-out: Ratio CC50/IC50.
`C#C[C@@]1(O)[C@H](O)[C@@H](CO)O[C@H]1n1ccc2c(N)ncnc21`: the selectivity ratio was above 12.3.

Test system in another series: not listed separately
The series is described as follows: Selectivity index, ratio of CC50 for human RD cells to IC50 for CA6 infected in human RD cells. The format is toxicity, cell-based. To be noted: read-out: Ratio CC50/IC50.
For the compound `O=C(c1ccc(C(F)(F)F)cc1O)c1[nH]c(Cl)c(Cl)c1-n1c(C(=O)c2ccc(C(F)(F)F)cc2O)cc(Cl)c1SCc1ccccn1`, the selectivity ratio was 1.8.
Regarding `C#C[C@@]1(O)[C@H](O)[C@@H](CO)O[C@H]1n1ccc2c(N)ncnc21`, the selectivity ratio is above 21.7.

For another series, the system named is Yellow fever virus. The series is described as follows: Antiviral activity against YFV-17D infected in […] incubated for 7 days by CellTiter 96 luminescent cell viability assay. The class given is functional, organism-based. The settings on record: 168 h.
With `C#C[C@@]1(O)[C@H](O)[C@@H](CO)O[C@H]1n1ccc2c(N)ncnc21`, the IC50 is 1910 nM.

The test system of another series is Japanese encephalitis virus. The series is described as follows: Antiviral activity against JEV-SA14 infected in […] incubated for 7 days by CellTiter 96 luminescent cell viability assay. The class given is functional, organism-based. The settings on record: 168 h.
As for `O=C(c1ccc(C(F)(F)F)cc1O)c1[nH]c(Cl)c(Cl)c1-n1c(C(=O)c2ccc(C(F)(F)F)cc2O)cc(Cl)c1SCc1ccccn1`, 420 nM corresponded to half-maximal inhibition (IC50).
Same read-out and setting: the value for `C#C[C@@]1(O)[C@H](O)[C@@H](CO)O[C@H]1n1ccc2c(N)ncnc21` was 3090 nM.

Test system in the next series: not listed separately
The series is described as follows: Selectivity index, ratio of CC50 for human RD cells to IC50 for EV71 infected in human RD cells. The format is toxicity, cell-based. The settings on record: read-out: Ratio CC50/IC50.
Regarding `O=C(c1ccc(C(F)(F)F)cc1O)c1[nH]c(Cl)c(Cl)c1-n1c(C(=O)c2ccc(C(F)(F)F)cc2O)cc(Cl)c1SCc1ccccn1`, the selectivity ratio was determined as 1.43.
Turning to `C#C[C@@]1(O)[C@H](O)[C@@H](CO)O[C@H]1n1ccc2c(N)ncnc21`, the selectivity ratio is above 40.

Test system in another series: not listed separately
The series is described as follows: Selectivity index, ratio of CC50 for […] to IC50 for JEV-SA14 infected in […]. The format is toxicity, cell-based. The settings on record: read-out: Ratio CC50/IC50.
Regarding `O=C(c1ccc(C(F)(F)F)cc1O)c1[nH]c(Cl)c(Cl)c1-n1c(C(=O)c2ccc(C(F)(F)F)cc2O)cc(Cl)c1SCc1ccccn1`, the selectivity ratio was determined as 0.61.
`C#C[C@@]1(O)[C@H](O)[C@@H](CO)O[C@H]1n1ccc2c(N)ncnc21`: the selectivity ratio is above 6.47.

Test system in the next series: not listed separately
Nature of the series: Cytotoxicity against human RD cells infected with CA16 incubated for 3 days by CellTiter 96 luminescent cell viability assay. The format is toxicity, cell-based. To be noted: time 3 day.
For the compound `O=C(c1ccc(C(F)(F)F)cc1O)c1[nH]c(Cl)c(Cl)c1-n1c(C(=O)c2ccc(C(F)(F)F)cc2O)cc(Cl)c1SCc1ccccn1`, the CC50 at 72 h was determined as 340 nM.
The compound `C#C[C@@]1(O)[C@H](O)[C@@H](CO)O[C@H]1n1ccc2c(N)ncnc21` displayed a CC50 at 72 h above 20000 nM.

Test system in a further series: not listed separately
The series is described as follows: Selectivity index, ratio of CC50 for […] to IC50 for DENV-NGC infected in […]. The format is toxicity, cell-based. To be noted: read-out: Ratio CC50/IC50.
On to `C#C[C@@]1(O)[C@H](O)[C@@H](CO)O[C@H]1n1ccc2c(N)ncnc21`, for which the selectivity ratio was above 3.96.

For a further series, the system named is Coxsackievirus A16. The series is described as follows: Antiviral activity against CA16 infected in human RD cells incubated for 3 days by CellTiter 96 luminescent cell viability assay. The settings on record: Enterovirus A, 72 h. The format is functional, organism-based.
In the case of `O=C(c1ccc(C(F)(F)F)cc1O)c1[nH]c(Cl)c(Cl)c1-n1c(C(=O)c2ccc(C(F)(F)F)cc2O)cc(Cl)c1SCc1ccccn1`, the IC50 worked out at 30 nM.
On the same count and under the same terms, for `C#C[C@@]1(O)[C@H](O)[C@@H](CO)O[C@H]1n1ccc2c(N)ncnc21` the value was 710 nM.

The next series has as its system Dengue virus. The series is described as follows: Antiviral activity against DENV-NGC-1 infected in […] incubated for 7 days by CellTiter 96 luminescent cell viability assay. The class given is functional, organism-based. The settings on record: NGC-1, BHK, 168 h.
As to `C#C[C@@]1(O)[C@H](O)[C@@H](CO)O[C@H]1n1ccc2c(N)ncnc21`, the IC50 was 5050 nM.

The next series concerns Coxsackievirus. Nature of the series: Antiviral activity against CA6 infected in human RD cells incubated for 3 days by CellTiter 96 luminescent cell viability assay. The class given is functional, organism-based. To be noted: A6, RD, 72 h.
Compound `O=C(c1ccc(C(F)(F)F)cc1O)c1[nH]c(Cl)c(Cl)c1-n1c(C(=O)c2ccc(C(F)(F)F)cc2O)cc(Cl)c1SCc1ccccn1` returned an IC50 of 190 nM.
On to `C#C[C@@]1(O)[C@H](O)[C@@H](CO)O[C@H]1n1ccc2c(N)ncnc21`, for which the IC50 is 920 nM.
